From US5607962A, “Substituted indole derivatives” (Bayer Aktiengesellschaft, priority 1995, dated 1997)

Test system: smooth muscle cells
Test: Inhibition of the proliferation of smooth muscle cells (3H-thymidine incorporation)
Format: cell-based, pigs
Settings: Sus scrofa; smooth muscle cells from pig aortas; half-maximum inhibition of 3H-thymidine incorporation produced by 10% FCS
Experimental: Investigation of the inhibition of the proliferation of smooth muscle cells by the compounds according to the invention
To determine the antiproliferative action of the compounds, smooth muscle cells are used which have been obtained from the aortas of pigs by the media explant technique [R. Ross, J. Cell. Biol. 50, 172, 1971]. The cells are inoculated into suitable culture dishes, as a role 96-hole plates, and cultured at 37° C. for 2-3 days in medium 199 with 7.5% FCS and 7.5% NCS, 2 mM L-glutamine and 15 mM HEPES, pH 7.4 in 5% CO2. The cells are then synchronized by withdrawal of serum for 2-3 days and then stimulated to growth using serum or other factors. At the same time, test compounds are added. […] To determine the IC50 values, the active compound concentration is calculated at which sequential dilution of the active compound causes half-maximum inhibition of the thymidine incorporation produced by 10% FCS.

With `NC(=O)C(NC(=O)[C@@H]1CCCC[C@H]1c1ccc(Cc2c(-c3ccccc3)[nH]c3ccccc23)cc1)c1ccccc1` (stereo partly drawn) [Example 3, trans-2-[4-(2-Phenylindol-3-yl-methyl)phenyl]-cyclohexane-1-carbonyl(phenylglycinamido)amide] the IC50 was 20 pM.
